# Experimental data: publication PMC3991664, “Growth Inhibitory, Bactericidal, and Morphostructural Effects of Dehydrocostus Lactone from Magnolia sieboldii Leaves on Antibiotic-Susceptible and -Resistant Strains of Helicobacter pylori” (PLoS ONE, 2014)
# Molecular target: T1, urease (UreB subunit) (Helicobacter pylori, UniProt P69996)
# T1 construct: native crude urease of H. pylori ATCC 43504 (UreA and UreB subunits); with UreA (urease subunit)
# Test: urease activity inhibition in crude urease preparation, indophenol (ammonia release) assay; Western blot of subunits
# Type: biochemical
# T1 sequence (P69996 whole entry): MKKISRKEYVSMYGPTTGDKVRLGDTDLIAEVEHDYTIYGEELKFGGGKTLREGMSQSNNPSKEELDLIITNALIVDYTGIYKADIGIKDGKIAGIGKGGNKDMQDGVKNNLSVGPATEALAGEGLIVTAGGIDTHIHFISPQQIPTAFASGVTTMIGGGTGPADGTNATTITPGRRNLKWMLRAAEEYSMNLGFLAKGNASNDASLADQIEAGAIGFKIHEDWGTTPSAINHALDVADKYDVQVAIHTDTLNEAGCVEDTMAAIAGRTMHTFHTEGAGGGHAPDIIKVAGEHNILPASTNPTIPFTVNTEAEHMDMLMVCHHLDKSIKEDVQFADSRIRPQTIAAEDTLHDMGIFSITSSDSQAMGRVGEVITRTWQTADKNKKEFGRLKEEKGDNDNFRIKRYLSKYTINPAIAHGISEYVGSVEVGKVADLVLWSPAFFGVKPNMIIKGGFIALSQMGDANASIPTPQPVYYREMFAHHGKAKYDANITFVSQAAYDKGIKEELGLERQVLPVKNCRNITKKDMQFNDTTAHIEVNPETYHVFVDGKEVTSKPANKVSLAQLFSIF
structure (smiles),measurement,value
O=C(O[C@@H]1Cc2c(O)cc(O)cc2O[C@@H]1c1cc(O)c(O)c(O)c1)c1cc(O)c(O)c(O)c1 [(–)-epigallocatechin gallate],IC50,30 µM
